According to PMC6934184, “Selective DNA-PKcs inhibition extends the therapeutic index of localized radiotherapy and chemotherapy” (The Journal of Clinical Investigation, 2019):

Target: T1, PASK (Homo sapiens, UniProt Q96RG2)
T1 construct: purchased Thermo Fisher Scientific (Life Technologies) SelectScreen
Assay: SelectScreen Z'LYTE
Type: biochemical
Procedure, shortened: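 Percent values come from Thermo SelectScreen profiling of NU5455, combining activity and binding assays. CSF1R was run in Z'LYTE format at Km app ATP, and CAMK1 in Adapta format with ATP listed at 10.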

T1 sequence (Q96RG2 whole entry): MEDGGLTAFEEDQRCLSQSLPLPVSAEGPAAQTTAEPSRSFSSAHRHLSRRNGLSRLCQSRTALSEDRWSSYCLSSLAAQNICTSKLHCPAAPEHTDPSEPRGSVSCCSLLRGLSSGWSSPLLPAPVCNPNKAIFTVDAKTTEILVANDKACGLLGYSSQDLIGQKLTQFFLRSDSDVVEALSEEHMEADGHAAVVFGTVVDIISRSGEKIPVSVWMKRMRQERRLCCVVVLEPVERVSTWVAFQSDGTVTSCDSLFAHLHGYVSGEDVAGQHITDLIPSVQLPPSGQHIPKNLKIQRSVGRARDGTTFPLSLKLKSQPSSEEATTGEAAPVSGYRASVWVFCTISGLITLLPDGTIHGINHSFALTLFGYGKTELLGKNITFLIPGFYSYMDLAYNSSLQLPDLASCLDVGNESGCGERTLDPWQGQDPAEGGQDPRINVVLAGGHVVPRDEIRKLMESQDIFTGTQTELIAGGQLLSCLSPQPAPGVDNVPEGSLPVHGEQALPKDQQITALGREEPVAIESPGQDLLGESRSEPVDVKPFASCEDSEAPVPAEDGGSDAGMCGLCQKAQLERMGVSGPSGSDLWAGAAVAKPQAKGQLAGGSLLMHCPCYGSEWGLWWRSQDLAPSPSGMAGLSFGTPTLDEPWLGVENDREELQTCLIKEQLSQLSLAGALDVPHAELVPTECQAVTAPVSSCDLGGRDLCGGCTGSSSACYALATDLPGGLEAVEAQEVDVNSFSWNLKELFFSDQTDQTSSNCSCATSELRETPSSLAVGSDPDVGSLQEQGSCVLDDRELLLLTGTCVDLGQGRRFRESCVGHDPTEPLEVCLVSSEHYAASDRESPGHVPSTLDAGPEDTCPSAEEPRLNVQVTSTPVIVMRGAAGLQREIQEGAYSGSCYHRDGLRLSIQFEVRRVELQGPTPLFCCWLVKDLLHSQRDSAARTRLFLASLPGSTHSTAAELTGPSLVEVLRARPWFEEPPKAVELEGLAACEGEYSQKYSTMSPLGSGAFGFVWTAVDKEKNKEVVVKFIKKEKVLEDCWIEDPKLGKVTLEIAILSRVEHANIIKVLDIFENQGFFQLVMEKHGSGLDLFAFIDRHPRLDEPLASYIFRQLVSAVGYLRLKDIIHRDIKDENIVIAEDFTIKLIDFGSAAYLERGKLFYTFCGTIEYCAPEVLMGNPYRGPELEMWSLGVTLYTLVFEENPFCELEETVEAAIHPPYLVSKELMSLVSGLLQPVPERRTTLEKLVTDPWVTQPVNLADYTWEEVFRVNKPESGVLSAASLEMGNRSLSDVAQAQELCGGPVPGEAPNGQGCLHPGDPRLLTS

SMILES: CN(C(=O)CN1CCOCC1)c1ccc2sc3c(-c4cccc5c(=O)cc(N6CC7CCC(C6)O7)oc45)cccc3c2c1 [NU5455]
- inhibition at 1 µM: 2.3%
